# Measurements from ChEMBL document CHEMBL1154584, “Hachijodines A-G: seven new cytotoxic 3-alkylpyridine alkaloids from two marine sponges of the genera Xestospongia and amphimedon” (2000).
# System: P388
# Assay: Cytotoxicity against mouse P388 cells
# Type: functional
row,Compound,Activity
1,CONCCCCCCCCCCCCc1cccnc1 [HACHIJODINE A],2.2 µg/mL
2,CONCCC(C)CCCCCCCCCc1cccnc1 (configuration not stated) [HACHIJODINE B],2.2 µg/mL
3,CONCC(C)CCCCCCCCCCc1cccnc1 (configuration not stated) [HACHIJODINE C],2.2 µg/mL
4,CONCCCCCCCCCCC(C)Cc1cccnc1 (configuration not stated) [HACHIJODINE D],2.2 µg/mL
5,CN(O)CCCCCCCCCCCCCc1cccnc1 [HACHIJODINE E],2.3 µg/mL
6,CN(O)CCCCCCCCC#CCCCCc1cccnc1 [HACHIJODINE F],1 µg/mL
7,CN(O)CCCCCCCC/C=C\C#CCCCCc1cccnc1 [HACHIJODINE G],1 µg/mL
